Assays:
mouse Lewis lung cancer = test: Mouse Lewis lung cancer, toe subcutaneous inoculation, anti-tumor test; conditions: po × 14bid
From the text: (§1) human breast cancer Bcap-37 model, human lung cancer A549 model, human intestinal cancer LOVO model, human stomach cancer MGC model and human liver cancer QGY model, with tumor cell lines being of the second generation or more, mouse B16 melanoma cell line, mouse Lewis lung cancer model, mouse sarcoma s180 model, all passaged and preserved in Pharmacological Division of Shanghai Institute of Pharmaceutical Industry. 3. Experiment Animals Origins: nude mice, 6-week old, 18-22 g/mouse, provided by Laboratory Animal Center of Chinese Academy of Sciences, Shanghai Branch, with certification No. 2001A032. C57BL/6 mice and Kunming mice, 18-22 g/mouse, provided by Laboratory Animal Center of Chinese Academy of Sciences, Shanghai Branch, with certification SYXK (Shanghai) 2004-0015. Gender: male or female, the same gender for each batch in experiment Animal numbers: 10 mice and 10 nude mice for each of positive control group and test group in experiment, and 20 for negative control group. 4. Experiment Design Dose Settings: doses for 20(R)-ginsenoside Rg3 octo-acetate, 20(R)-ginsenoside Rg3 octo-n-butyrate and 20(R)-ginsenoside Rg3 octo-n-propionate were set as high-dose group (0.3 mg/kg/d), medium-dose group (0.06 mg/kg/d), and low-dose group (0.012 mg/kg/d). Dosage regimen: oral administration, twice daily. human tumor model and cell-inoculated mouse model: po×14 bid; mouse tumor-inoculated model: po×10 bid. Control Trial: negative control group: given with the same volume of 5% CMC-Na as the test group, and the same dosage regimen as the test group. positive control group: Cyclophosphamide CTX 30 mg/kg, […] 5. Experiment Method and Key Steps 5.1 Anti-Tumor Test 5.1.1 Subcutaneous Inoculation Model
(§2) Tumor cells of vigorous growth stage were taken under sterile condition and made into cell suspensions of about 1-2×10^7/ml by homogenization, the suspensions were inoculated subcutaneously at 0.2 ml/mouse in host mice and repeated on the next day according to the experiment design, the animals in each group were slaughtered after about three weeks, the tumors were collected and weighed, and the tumor inhibition rates were calculated according to the following equation: tumor inhibition rate %=[(average tumor weight of control group-average tumor weight of treatment group)/average tumor weight of control group]×100%

[1] = system: human breast cancer Bcap-37 cells; test: Human breast cancer Bcap-37 subcutaneous inoculation in nude mice; conditions: po × 14bid
From the text: as §1, with “group:” for “group: Cyclophosphamide CTX 30 mg/kg,”
as §2
The same operation was repeated in human tumor xenograft model, except that the feed, packing, cage and contact instruments were all sterilized under high pressure before use and the nude mice were fed in a laminar flow rack. The tumors and tumor-bearing animal weight gains were dynamically measured (tumor size measured using caliper: long diameter/a, short diameter/b, and tumor bulk=a×b^2/2).

[2] = Solubility of the isolated products; format: physicochemical
[3] = system: human lung cancer A549 cells; test: Human lung cancer A549 (subcutaneous inoculation) metastasis model; conditions: po × 14bid

Structure (SMILES): CC(=O)OC[C@H]1O[C@@H](OC2CC[C@]3(C)C(CC[C@@]4(C)C3C[C@H](OC(C)=O)C3C([C@@](C)(O)CCC=C(C)C)CC[C@@]34C)C2(C)C)[C@H](OC2O[C@H](COC(C)=O)[C@@H](OC(C)=O)[C@H](OC(C)=O)[C@H]2OC(C)=O)[C@@H](OC(C)=O)[C@@H]1OC(C)=O (stereo partly drawn) [Rg3-octo-acetate, 20 (R)-ginsenoside Rg3 octaacetate]
- Tumor inhibition rate % (mouse Lewis lung cancer; 0.012 mg/kg/d): 50.15%
- Tumor-bearing toe weight (g) X ± SD (mouse Lewis lung cancer; 0.012 mg/kg/d): 0.444 ± 0.09 g
- Tumor inhibition rate % (mouse Lewis lung cancer; 0.06 mg/kg/d): 58.89%
- Tumor-bearing toe weight (g) X ± SD (mouse Lewis lung cancer; 0.06 mg/kg/d): 0.366 ± 0.09 g
- Tumor inhibition rate % (mouse Lewis lung cancer; 0.3 mg/kg/d): 71.09%
- Tumor-bearing toe weight (g) X ± SD (mouse Lewis lung cancer; 0.3 mg/kg/d): 0.633 ± 0.08 g
- Tumor inhibition rate % ([1]; 0.012 mg/kg/d): 47.93%
- Tumor weight (g) X ± SD ([1]; 0.012 mg/kg/d): 0.672 ± 0.07 g
- Tumor inhibition rate % ([1]; 0.06 mg/kg/d): 59.69%
- Tumor weight (g) X ± SD ([1]; 0.06 mg/kg/d): 0.520 ± 0.08 g
- Tumor inhibition rate % ([1]; 0.3 mg/kg/d): 68.98%
- Tumor weight (g) X ± SD ([1]; 0.3 mg/kg/d): 0.400 ± 0.09 g
- Solubility in ethanol ([2]; ethanol): soluble
- Solubility in water ([2]; water): soluble
- Anti-metastasis rate % ([3]; 0.012 mg/kg/d): 49.91%
- Lung clone numbers (mice) X ± SD ([3]; 0.012 mg/kg/d): 0.96 ± 0.12
- Anti-metastasis rate % ([3]; 0.06 mg/kg/d): 57.90%
- Lung clone numbers (mice) X ± SD ([3]; 0.06 mg/kg/d): 0.81 ± 0.15
- Anti-metastasis rate % ([3]; 0.3 mg/kg/d): 68.52%
- Lung clone numbers (mice) X ± SD ([3]; 0.3 mg/kg/d): 0.84 ± 0.13
